Measured values reported in patent US11639373B2, “Therapeutic and diagnostic agents for cancer” (TECHNISCHE UNIVERSITÄT MÜNCHEN, priority 2018, dated 2023).
Where two headings read alike, the source gives them in different places. Non-standard residues stand in square brackets, D forms with d. Residues, ends and D or L forms follow the SMILES beside them. Groups on a side chain read outwards from the residue. ξ: configuration not given here. *: point of attachment. X3 = C[N+](C)(Cc1cn([C@@H](CCCNC(=N)N)C(=O)*)nn1)C[B-](F)(F)F; X2 = C[N+](C)(Cc1cn([C@@H](CCCCN)C(=O)*)nn1)C[B-](F)(F)F; DOTA = O=C(O)CN1CCN(CC(=O)O)CCN(CC(=O)*)CCN(CC(=O)O)CC1; X5 = CC(C)[C@H](C(=O)*)n1cc(C[N+](C)(C)C[B-](F)(F)F)nn1; X4 = C[N+](C)(Cc1cn(-c2ccc(C(=O)*)cc2)nn1)C[B-](F)(F)F; dTyr(3-I) = N[C@H](Cc1ccc(O)c(I)c1)C(=O)O; 2Nal = N[C@@H](Cc1ccc2ccccc2c1)C(=O)O; X1 = OCC1O[C@H](*)C(O)C(O)[C@H]1O; pS = N[C@@H](COP(=O)(O)O)C(=O)O; dNMeOrn = CN[C@H](CCCN)C(=O)O; 4Amb = NCc1ccc(C(=O)O)cc1; Mercaptoacetyl = O=C(CS)*; ξNMeOrn = CNC(CCCN)C(=O)O; 4Abz = Nc1ccc(C(=O)O)cc1; X6 = CC(=O)c1ccc(N*)cc1; Dap = NC[C@H](N)C(=O)O

How the values were obtained:
[1] = biological target: T1, human CXCR4 (Homo sapiens, UniProt P61073); assay: Competitive binding assay to human CXCR4, Jurkat cells, [125I]FC131 radioligand
T1 construct: using CXCR4 positive Jurkat human T-cell leukemia cells; endogenous in cells; host or cells: Jurkat human T-cell leukemia cells

[2] = biological target: T2, murine CXCR4 (Mus musculus, UniProt P70658); assay: Competitive binding assay to murine CXCR4, Eμ-Myc1080 cells, [125I]CPCR4.3 radioligand
T2 construct: The murine CXCR4 expressing cell line Ep-Myc1080; endogenous in cells; host or cells: Eμ-Myc1080 mouse B-cell lymphoma cells
Description: Competition studies addressing the human CXCR4 were performed using CXCR4 positive Jurkat human T-cell leukemia cells and ^125I-FC131 (^125I-2), addressing the murine CXCR4, Ep-Myc1080 mouse B-cell lymphoma cells and ^125I-CPCR4.3 (Demmer et al. A Conformationally Frozen Peptoid Boosts CXCR4 Affinity and Anti-HIV Activity. Angewandte Chemie International Edition. 2012; 51:8110-8113) as the radioligand were utilized as described previously (Poschenrieder et al., The influence of different metal-chelate conjugates of pentixafor on the CXCR4 affinity. EJNMMI research. 2016; 6:1-8).

[3] = Lipophilicity, shake flask n-octanol/PBS; format: physicochemical; conditions: Table 1d
Description: To a solution of app. 0.5 MBq of radiolabeled peptide in 500 μL of PBS (pH 7.4), 500 μL of octanol were added (n=6). Vials were vortexed vigorously for 3 min. To achieve quantitative phase separation, the vials were centrifuged at 14,600×g for 6 min in a Biofuge 15 (Heraeus Sepatech, Osterode, Germany). The activity concentrations in 100 μL-samples of both the aqueous and the organic phase were measured in a γ-counter. Both the partition coefficient Pow, which is defined as the molar concentration ratio of a single species A between octanol and an aqueous phase at equilibrium, and log Pow, which is an important parameter used to characterize lipophilicity of a compound, were calculated.
Internalization and cell efflux studies of the respective ligands were performed using a previously published protocol (Poschenrieder et al., First 18F-Labeled Pentixafor-Based Imaging Agent for PET Imaging of CXCR4 Expression In Vivo. 2016). The distribution coefficients of the respective ^68Ga- and […] peptides in octanol and PBS buffer were determined applying the shake flask method as described previously (Weineisen et al., Synthesis and preclinical evaluation of DOTAGA-conjugated PSMA ligands for functional imaging and endoradiotherapy of prostate cancer. EJNMMI Research. 2014; 1:1-15).
Lipophilicity was measured using the shake flask method. The logarithm of the partition coefficient P, where P is the ratio of activity distribution of the respective ^68Ga/^177Lu-labeled peptide in n-octanol and PBS are listed in Table 2.

[4] = Table 1d, orn side chain modifications, read-out: IC50 [nM] to hCXCR4
[5] = Table 1b, ^natLu metal complexes, Jurkat cells, [^125I]FC-131, read-out: IC50 [nM] to hCXCR4 [^natLu]
[6] = ^natLu complexes, Jurkat cells, [^125I]FC131 0.1 nM, RT 2 h, mean ± SD (n = 3), read-out: IC50 [nM] for ^natLu-complexes and human CXCR4
[7] = Table 1b, 18F-labeling precursors, Jurkat cells, [^125I]FC-131, read-out: IC50 [nM] to hCXCR4
[8] = Table 1b, ^natGa metal complexes, Jurkat cells, [^125I]FC-131, read-out: IC50 [nM] to hCXCR4 [^natGa]
[9] = Table 1b, ^natY metal complexes, Jurkat cells, [^125I]FC-131, read-out: IC50 [nM] to hCXCR4 [^natY]
[10] = ^natGa complexes, Jurkat cells, [^125I]FC131 0.1 nM, RT 2 h, mean ± SD (n = 3), read-out: IC50 [nM] for ^natGa-complexes and human CXCR4

T1 sequence (P61073 whole entry): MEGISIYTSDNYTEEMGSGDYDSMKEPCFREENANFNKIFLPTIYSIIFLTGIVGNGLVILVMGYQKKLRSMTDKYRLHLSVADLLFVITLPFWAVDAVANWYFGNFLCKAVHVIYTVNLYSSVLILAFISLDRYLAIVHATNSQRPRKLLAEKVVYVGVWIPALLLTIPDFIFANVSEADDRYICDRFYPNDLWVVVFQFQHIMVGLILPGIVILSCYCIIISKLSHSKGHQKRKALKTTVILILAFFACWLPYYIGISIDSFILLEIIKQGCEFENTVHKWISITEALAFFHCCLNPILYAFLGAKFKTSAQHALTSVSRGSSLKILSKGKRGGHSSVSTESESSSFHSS
T2 sequence (P70658 whole entry): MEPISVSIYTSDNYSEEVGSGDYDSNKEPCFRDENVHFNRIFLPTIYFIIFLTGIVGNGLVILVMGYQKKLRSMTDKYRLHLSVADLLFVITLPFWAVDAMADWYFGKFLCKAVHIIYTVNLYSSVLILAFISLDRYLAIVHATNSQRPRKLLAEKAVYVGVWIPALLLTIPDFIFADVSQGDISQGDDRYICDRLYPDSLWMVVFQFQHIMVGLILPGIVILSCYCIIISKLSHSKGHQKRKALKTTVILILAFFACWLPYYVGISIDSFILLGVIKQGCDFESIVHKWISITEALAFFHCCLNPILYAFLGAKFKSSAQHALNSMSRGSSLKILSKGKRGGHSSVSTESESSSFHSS

CC(=O)c1ccc(NC(=O)[C@@H](C)NC(=O)[C@@H](CCCNC(=N)N)NC(=O)[C@@H](CO)NC(=O)[C@@H](CO)NC(=O)[C@@H](CO)NC(=O)CS)cc1 [T1] (Mercaptoacetyl-[dS][dS][dS][dR][dA]-X6)
IC50 [1, 4]: 22.9 ± 3.9 nM

CN1C(=O)[C@@H](Cc2ccc(O)cc2)NC(=O)CNC(=O)[C@H](Cc2ccc3ccccc3c2)NC(=O)[C@H](CCCNC(=N)N)NC(=O)[C@H]1CCCNC(=O)c1ccc(CNC(=O)CN2CCN(CC(=O)O)CCN(CC(=O)O)CCN(CC(=O)O)CC2)cc1 [compound 3, cyclo(D-Tyr^1-D-[NMe]Orn^2(AMBS-DOTA)-Arg^3-Nal^4-Gly^5), reference compound] (cyclo([dY][dNMeOrn]([4Amb-DOTA])R[2Nal]G))
IC50 [2]: > 1000 nM

CN1C(=O)[C@H](Cc2ccc(O)c(I)c2)NC(=O)CNC(=O)[C@@H](Cc2ccc3ccccc3c2)NC(=O)[C@@H](CCCNC(=N)N)NC(=O)[C@@H]1CCCNC(=O)c1ccc(NC(=O)[C@@H](CC(=O)O)NC(=O)CN2CCN(CC(=O)O)CCN(CC(=O)O)CCN(CC(=O)O)CC2)cc1 [P1]
IC50 [1, 5]: 106 ± 10 nM
IC50 [1, 6]: 106 ± 10 nM

C[C@@H](NC(=O)[C@@H](CCCNC(=N)N)NC(=O)[C@H](CC(=O)O)NC(=O)[C@H](CC(=O)O)NC(=O)[C@H](CC(=O)O)NC(=O)CS)C(=O)Nc1ccc(C(=O)O)cc1 [T2] (Mercaptoacetyl-DDD[dR][dA][4Abz]-OH)
IC50 [1, 4]: 85.7 ± 5.1 nM
logP [3]: −2.2

C[C@@H](NC(=O)[C@@H](CCCNC(=N)N)NC(=O)[C@H](CN)NC(=O)[C@H](CN)NC(=O)[C@H](CN)NC(=O)CS)C(=O)Nc1ccc(C(=O)O)cc1 [T3] (Mercaptoacetyl-[Dap][Dap][Dap][dR][dA][4Abz]-OH)
IC50 [1, 4]: 18.8 ± 8.5 nM
logP [3]: −1.5

CC(C)[C@H](C(=O)NCC(=O)Nc1ccc(C(=O)NCCC[C@@H]2C(=O)N[C@@H](CCCNC(=N)N)C(=O)N[C@@H](Cc3ccc4ccccc4c3)C(=O)NCC(=O)N[C@H](Cc3ccc(O)c(I)c3)C(=O)N2C)cc1)n1cc(C[N+](C)(C)C[B-](F)(F)F)nn1 [F2, cyclo[i-yorn′(AMBF3(methyl(1H-1,2,3-triazol-4-yl)-vG-4-amino)benzoyl-)RNaIG]] (cyclo([2Nal]G[dTyr(3-I)][dNMeOrn]([4Abz-Gly-X5])R))
IC50 [1, 7]: 65.2 ± 10 nM

CN1C(=O)[C@@H](Cc2ccc(O)c(I)c2)NC(=O)CNC(=O)[C@H](Cc2ccc3ccccc3c2)NC(=O)[C@H](CCCNC(=N)N)NC(=O)C1CCCNC(=O)c1ccc(NC(=O)CNC(=O)[C@H](CCCCN)NC(=O)CN2CCN(CC(=O)O)CCN(CC(=O)O)CCN(CC(=O)O)CC2)cc1 (stereo partly drawn) [P3] (cyclo([2Nal]G[dTyr(3-I)][ξNMeOrn]([4Abz-Gly-Lys-DOTA])R))
IC50 ([1]; Table 1b, ^natBi metal complexes, Jurkat cells, [^125I]FC-131, read-out: IC50 [nM] to hCXCR4 [^natBi]): 38 ± 25 nM
IC50 [1, 8]: 2.4 ± 0.1 nM
IC50 [1, 5]: 3.6 ± 1.1 nM
IC50 [1, 9]: 2.4 ± 0.2 nM
IC50 [1, 10]: 2.4 ± 0.1 nM
IC50 [1, 6]: 3.6 ± 1.1 nM

CN1C(=O)[C@@H](Cc2ccc(O)cc2)NC(=O)CNC(=O)[C@H](Cc2ccc3ccccc3c2)NC(=O)[C@H](CCCNC(=N)N)NC(=O)[C@H]1CCCNC(=O)c1ccc(NC(=O)CNC(=O)[C@H](CCCNC(=N)N)n2cc(C[N+](C)(C)C[B-](F)(F)F)nn2)cc1 [F3b, cyclo[-yorn′(AMBF3(methyl(1H-1,2,3-triazol-4-yl)-rG-4-amino)benzoyl-)RNaIG]] (cyclo([2Nal]G[dY][dNMeOrn]([4Abz-Gly-X3])R))
IC50 [1, 7]: 2.4 ± 0.8 nM

CN1C(=O)[C@@H](Cc2ccc(O)c(I)c2)NC(=O)CNC(=O)[C@H](Cc2ccc3ccccc3c2)NC(=O)[C@H](CCCNC(=N)N)NC(=O)[C@H]1CCCNC(=O)c1ccc(-n2cc(C[N+](C)(C)C[B-](F)(F)F)nn2)cc1 [F1, cyclo[i-yorn′(AMBF3(methyl(1H-1,2,3-triazol-4-yl)4-amino)benzoyl-)RNaIG]] (cyclo([2Nal]G[dTyr(3-I)][dNMeOrn](X4)R))
IC50 [1, 7]: 134 ± 47 nM

CN1C(=O)[C@@H](Cc2ccc(O)c(I)c2)NC(=O)CNC(=O)[C@H](Cc2ccc3ccccc3c2)NC(=O)[C@H](CCCNC(=N)N)NC(=O)[C@H]1CCCNC(=O)c1ccc(NC(=O)CNC(=O)[C@H](CCCCN)n2cc(C[N+](C)(C)C[B-](F)(F)F)nn2)cc1 [F4, cyclo[i-yorn′(AMBF3(methyl(1H-1,2,3-triazol-4-yl)-kG-4-amino)benzoyl-)RNaIG]] (cyclo([2Nal]G[dTyr(3-I)][dNMeOrn]([4Abz-Gly-X2])R))
IC50 [1, 7]: 3.8 ± 0.9 nM

CN1C(=O)[C@@H](Cc2ccc(O)c(I)c2)NC(=O)CNC(=O)[C@H](Cc2ccc3ccccc3c2)NC(=O)[C@H](CCCNC(=N)N)NC(=O)[C@H]1CCCNC(=O)c1ccc(NC(=O)CNC(=O)[C@H](CN)NC(=O)CN2CCN(CC(=O)O)CCN(CC(=O)O)CCN(CC(=O)O)CC2)cc1 [P2] (cyclo([2Nal]G[dTyr(3-I)][dNMeOrn]([4Abz-Gly-Dap-DOTA])R))
IC50 [1, 8]: 3.6 ± 0.7 nM
IC50 [1, 9]: 4.1 ± 1.3 nM
IC50 [1, 10]: 3.6 ± 0.7 nM

CN1C(=O)[C@@H](Cc2ccc(O)cc2)NC(=O)CNC(=O)[C@H](Cc2ccc3ccccc3c2)NC(=O)[C@H](CCCNC(=N)N)NC(=O)C1CCCNC(=O)c1ccc(NC(=O)CNC(=O)[C@H](CCCCN)NC(=O)CN2CCN(CC(=O)O)CCN(CC(=O)O)CCN(CC(=O)O)CC2)cc1 (stereo partly drawn) [P3b] (cyclo([2Nal]G[dY][ξNMeOrn]([4Abz-Gly-Lys-DOTA])R))
IC50 [1, 8]: 8.9 ± 3.8 nM
IC50 [1, 5]: 8 ± 3.1 nM
IC50 [1, 9]: 6.3 ± 2.5 nM
IC50 [1, 10]: 8.9 ± 3.8 nM
IC50 [1, 6]: 8 ± 3.1 nM

C[C@@H](NC(=O)[C@@H](CCCNC(=N)N)NC(=O)[C@H](CO)NC(=O)[C@H](COP(=O)(O)O)NC(=O)[C@H](CO[C@H]1OC(CO)[C@H](O)C(O)C1O)NC(=O)CS)C(=O)Nc1ccc(C(=O)O)cc1 (some centres unmarked) [T4] (Mercaptoacetyl-S(X1)[pS]S[dR][dA][4Abz]-OH)
IC50 [1, 4]: 213 ± 22 nM
logP [3]: −2.2

cyclo[i-yorn′([^natLu]DOTA-rG-(4-amino)benzoyl-)RNaIG [^natLu-P4]
mIC50[nM] ^natLu complexes and murine CXCR4 ([2]; ^natLu complexes, Eμ-Myc1080 mouse B-cell lymphoma cells, [^125I]CPCR4.3, mean ± SD (n = 3)): 37.1 ± 2.9 nM

CC(=O)c1ccc(NC(=O)[C@@H](C)NC(=O)[C@@H](CCCNC(=N)N)NC(=O)[C@@H](CNC(=O)CO/N=C\c2ccc(F)cc2)NC(=O)CCS[C@H]2OC(CO)[C@@H](O[C@@H]3OC(CO)[C@@H](O)C(O)C3O)C(O)C2O)cc1 (some centres unmarked) [F5]
IC50 [1, 4]: 4.6 ± 0.7 nM

cyclo[i-yorn′([^natLu]DOTA-dapG-(4-amino)benzoyl-)RNaIG [^natLu-P2]
improvement of binding affinity by insertion of cationic amino acids in the linker ([1]; hCXCR4, versus ligand with glycine linker only): almost two-fold

cyclo[i-yorn′(DOTA-ra-(4-amino)benzoyl-)RNaIG [P5]
increase in affinity compared to P2 ([1]; hCXCR4): almost two-fold
